# ChEMBL document CHEMBL4602690, “Pigments of the Moss Paraleucobryum longifolium: Isolation and Structure Elucidation of Prenyl-Substituted 8,8'-Linked 9,10-Phenanthrenequinone Dimers” (J Nat Prod, 2020)
# Key:
# Format in all cases: functional, cell-based
# SiHa = experiment: Antiproliferative activity against human SiHa cells by MTT assay
# MDA-MB-231 = experiment: Antiproliferative activity against human MDA-MB-231 cells by MTT assay
# A2780 = experiment: Antiproliferative activity against human A2780 cells by MTT assay
# HeLa = experiment: Antiproliferative activity against human HeLa cells by MTT assay
IC50 (MDA-MB-231) [µM],IC50 (A2780) [µM],IC50 (HeLa) [µM],SMILES,IC50 (SiHa) [µM]
< 10,< 10,< 10,COc1cc(O)c2c(c1-c1c(OC)cc(O)c3c1C(=O)C(=O)c1c-3ccc(O)c1CCC(C)(C)O)C(=O)C(=O)c1c-2ccc(O)c1CCC(C)(C)O,< 10
< 10,< 10,< 10,C=C(C)[C@H](CCC(C)(C)O)Cc1c(O)ccc2c1C(=O)C(=O)c1c-2c(O)cc(OC)c1-c1c(OC)cc(O)c2c1C(=O)C(=O)c1c-2ccc(O)c1C[C@@H](CCC(C)(C)O)C(=C)C,< 10
